Reference: patent US9420794B2, “Herbicidal composition” (ISHIHARA SANGYO KAISHA, LTD., priority 2012, dated 2016)
Read-outs that look alike come from different tables or passages of the source.

How the values were obtained:
Type in all cases: in vivo
[1] = tested on: annual ragweed (Ambrosia artemisiifolia L.); assay: Test Example 3: pot test, foliar treatment, growth inhibition of annual ragweed; details: read-out: Growth inhibition rate of annual ragweed (%) Measured value
Procedure: (§1) Growth inhibition rate (%)=0 (equivalent to the non-treated area) to 100 (complete kill)
Upland field soil was put into a 1/1,000,000 ha pot, and seeds of annual ragweed (Ambrosia artemisiifolia L.) were sown. When the annual ragweed reached 6.0 to 8.0-leaf stage, predetermined amounts of ONEHOPE NYUZAI (tradename), Clio (tradename) and Spectrum (tradename) were diluted with water (in an amount corresponding to 300 L/ha) and applied for foliar treatment by a small sprayer.
(§2) On the 20 th day after treatment, the state of growth of the annual ragweed was visually observed to determine the growth inhibition rate (%). The growth inhibition rate (%) (measured value) and the growth inhibition rate (%) calculated in the same manner as in the above Test Example 1 are shown in Table 3.

[2] = tested on: wild oat (Avena fatua L.); assay: Test Example 4: pot test, soil treatment, growth inhibition of wild oat; details: read-out: Growth inhibition rate of wild oat (%) Measured value
Procedure: as §1
(§3) Upland field soil was put into a 1/160,000 ha pot, and seeds of wild oat (Avena fatua L.) were sown. On the next day, predetermined amounts of ONEHOPE NYUZAI (tradename), Clio (tradename) and Spectrum (tradename) were diluted with water (in an amount corresponding to 300 L/ha) and applied for soil treatment by a small sprayer.
as §2, with “28” for “20”, “wild oat” for “annual ragweed”, “4.” for “3.”

[3] = tested on: velvetleaf (Abutilon theophrasti Medic.); assay: Test Example 1: pot test, soil treatment, growth inhibition of velvetleaf; details: read-out: Growth inhibition rate of velvetleaf (%) Measured value
Description: Upland field soil was put into a 1/300,000 ha pot, and seeds of velvetleaf (Abutilon theophrasti Medic.) were sown. On the next day, predetermined amounts of a flowable containing nicosulfuron as an active ingredient (tradename: ONEHOPE NYUZAI, manufactured by Ishihara Sangyo Kaisha, Ltd.), an emulsifiable concentrate containing dimethenamid-P as an active ingredient (tradename: Spectrum, manufactured by BASF) and a flowable containing topramezone as an active ingredient (tradename: Clio, manufactured by BASF) were diluted with water (in an amount corresponding to 1,000 L/ha) and applied for soil treatment by a small sprayer.
On the 28th day after treatment, the state of growth of the velvetleaf was visually observed to determine the growth inhibition rate (%) in accordance with the following evaluation standard. The growth inhibition rate (%) (measured value) and the growth inhibition rate (%) (calculated value) calculated by the Colby's formula are shown in Table 1.
as §1

[4] = tested on: korean lespedeza (Kummerowia stipulacea (Maxim.) Makino); assay: Test Example 2: pot test, soil treatment, growth inhibition of korean lespedeza; details: read-out: Growth inhibition rate of korean lespedeza (%) Measured value
Procedure: as §1
as §3, with “korean lespedeza (Kummerowia stipulacea (Maxim.) Makino)” for “wild oat (Avena fatua L.)”
as §2, with “14th” for “20 th”, “korean lespedeza” for “annual ragweed”, “2.” for “3.”

Question: COC[C@H](C)N(C(=O)CCl)c1c(C)csc1C [Dimethenamid-P, (S)-2-chloro-N-(2,4-dimethyl-3-thienyl)-N-(2-methoxy-1-methylethyl)acetamide] was tested. Which inhibition at 500 g/ha ([1]; dose 500 g/ha, foliar treatment at 6.0 to 8.0-leaf stage, 20th day after treatment) did it give?
Answer: 0%

Question: And the inhibition at 1000 g/ha ([1]; dose 1000 g/ha, foliar treatment at 6.0 to 8.0-leaf stage, 20th day after treatment)?
Answer: 0%

Question: And the inhibition at 250 g/ha ([2]; dose 250 g/ha, soil treatment, 28th day after treatment)?
Answer: 60%

Question: What about the inhibition at 500 g/ha ([3]; dose 500 g/ha, soil treatment, 28th day after treatment) of the same compound?
Answer: 20%

Question: What about the inhibition at 250 g/ha ([4]; dose 250 g/ha, soil treatment, 14th day after treatment) of the same compound?
Answer: 30%

Question: What about the inhibition at 1500 g/ha ([4]; dose 1500 g/ha, soil treatment, 14th day after treatment) of the same compound?
Answer: 30%

Question: How did the inhibition at 30 g/ha ([1]; dose 30 g/ha, foliar treatment at 6.0 to 8.0-leaf stage, 20th day after treatment) turn out when COc1cc(OC)nc(NC(=O)NS(=O)(=O)c2ncccc2C(=O)N(C)C)n1 [Nicosulfuron, 2-(4,6-dimethoxypyrimidin-2-ylcarbamoylsulfamoyl)-N,N-dimethylnicotinamide] was run?
Answer: 13%

Question: And the inhibition at 100 g/ha ([2]; dose 100 g/ha, soil treatment, 28th day after treatment)?
Answer: 60%

Question: What about the inhibition at 15 g/ha ([3]; dose 15 g/ha, soil treatment, 28th day after treatment) of the same compound?
Answer: 0%

Question: What about the inhibition at 10 g/ha ([4]; dose 10 g/ha, soil treatment, 14th day after treatment) of the same compound?
Answer: 0%

Question: What about the inhibition at 100 g/ha ([4]; dose 100 g/ha, soil treatment, 14th day after treatment) of the same compound?
Answer: 10%

Question: Cc1c(C(=O)c2cnn(C)c2O)ccc(S(C)(=O)=O)c1C1=NOCC1 [Topramezone, [3-(4,5-dihydro-1,2-oxazol-3-yl)-4-mesyl-o-tolyl](5-hydroxy-1-methylpyrazol-4-yl)methanone] was tested. Which inhibition at 20 g/ha ([1]; foliar) did it give?
Answer: 40%

Question: What about the inhibition at 50 g/ha ([1]; foliar) of the same compound?
Answer: 65%

Question: What about the inhibition at 15 g/ha ([2]; soil) of the same compound?
Answer: 0%

Question: What about the inhibition at 20 g/ha ([3]; soil) of the same compound?
Answer: 60%

Question: And the inhibition at 15 g/ha ([4]; soil)?
Answer: 0%

Question: What about the inhibition at 100 g/ha ([4]; soil) of the same compound?
Answer: 10%
